# Test results: ChEMBL document CHEMBL1201862, “PubChem BioAssay data set” (2004)
# The source made the active and inactive calls.
# Assays:
# [1] = target: Neurotensin receptor type 1 (Homo sapiens, UniProt P30989); format: functional;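 note: Image-based confirmatory dose-response assay measuring agonist activity at NTR1; NTR1-expressing U2OS osteosarcoma cells imaged for beta-arrestin GFP spot formation; agonist potency where compounds increase beta-arrestin recruitment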
# [2] = target: T1, Microphthalmia-associated transcription factor (Homo sapiens, UniProt O75030); experiment: TRPM1 promoter luciferase signal decrease, dose response, MITF inhibitor project, cell-based, SK-MEL-5, cherry-picked, set 3 (AID 493073); format: functional
# T1 sequence (O75030 whole entry): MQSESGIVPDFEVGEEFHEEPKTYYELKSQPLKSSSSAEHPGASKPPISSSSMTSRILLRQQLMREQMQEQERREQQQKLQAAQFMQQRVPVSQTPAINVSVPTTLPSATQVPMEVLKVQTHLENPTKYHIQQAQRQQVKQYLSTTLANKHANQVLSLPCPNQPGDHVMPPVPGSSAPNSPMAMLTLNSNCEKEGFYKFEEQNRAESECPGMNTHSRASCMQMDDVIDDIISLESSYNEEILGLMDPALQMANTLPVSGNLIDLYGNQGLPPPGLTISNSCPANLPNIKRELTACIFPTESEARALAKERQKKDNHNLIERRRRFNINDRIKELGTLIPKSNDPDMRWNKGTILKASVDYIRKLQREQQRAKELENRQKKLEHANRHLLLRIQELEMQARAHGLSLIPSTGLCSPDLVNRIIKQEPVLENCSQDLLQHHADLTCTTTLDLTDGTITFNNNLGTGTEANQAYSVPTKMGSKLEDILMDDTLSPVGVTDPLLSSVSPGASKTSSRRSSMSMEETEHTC
# Vero = experiment: cells; format: functional; conditions: Chlorocebus sabaeus
# [3] = target: T2, Short transient receptor potential channel 4 (Mus musculus, UniProt Q9QUQ5); experiment: TRPC4 positive allosteric modulators, dose response, cell-based, HEK293 TRPC4/mu-opioid, Fluo-4 calcium, EC20 DAMGO (AID 434941); format: functional
# T2 sequence (Q9QUQ5 whole entry): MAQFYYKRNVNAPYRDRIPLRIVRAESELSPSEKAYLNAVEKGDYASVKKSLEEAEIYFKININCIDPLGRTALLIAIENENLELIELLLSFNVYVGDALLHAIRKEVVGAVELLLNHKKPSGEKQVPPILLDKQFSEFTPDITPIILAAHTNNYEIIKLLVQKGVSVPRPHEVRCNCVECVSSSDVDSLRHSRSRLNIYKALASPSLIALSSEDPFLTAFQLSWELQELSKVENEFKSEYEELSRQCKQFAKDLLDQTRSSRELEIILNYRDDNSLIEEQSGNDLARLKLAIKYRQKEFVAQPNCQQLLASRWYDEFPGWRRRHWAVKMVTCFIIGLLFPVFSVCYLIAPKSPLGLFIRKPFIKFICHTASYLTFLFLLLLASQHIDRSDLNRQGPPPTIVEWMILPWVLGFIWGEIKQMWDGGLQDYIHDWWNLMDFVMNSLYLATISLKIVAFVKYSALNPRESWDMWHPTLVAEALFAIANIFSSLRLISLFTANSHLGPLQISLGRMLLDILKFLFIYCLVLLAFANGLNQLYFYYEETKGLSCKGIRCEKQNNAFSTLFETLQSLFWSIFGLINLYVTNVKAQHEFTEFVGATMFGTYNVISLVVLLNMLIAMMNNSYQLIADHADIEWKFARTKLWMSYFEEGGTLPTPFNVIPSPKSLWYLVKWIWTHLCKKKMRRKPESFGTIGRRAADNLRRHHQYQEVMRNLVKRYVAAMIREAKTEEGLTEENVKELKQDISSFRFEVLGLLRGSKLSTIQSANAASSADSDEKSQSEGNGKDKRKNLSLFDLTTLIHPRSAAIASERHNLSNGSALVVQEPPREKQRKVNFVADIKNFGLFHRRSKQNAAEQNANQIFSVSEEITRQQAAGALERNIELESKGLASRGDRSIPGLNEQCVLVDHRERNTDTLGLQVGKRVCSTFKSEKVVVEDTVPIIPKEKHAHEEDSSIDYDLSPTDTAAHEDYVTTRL
# [4] = inhibitors of firefly luciferase expression or activity, dose response, H4 neuroglioma cells, luminescence (AID 1990); format: functional, cell-based
# [5] = Luminescence Cell-Based Dose Response HTS to Identify Inhibitors of 5'UTR Stem-Loop Driven Prion Protein mRNA Translation in H4 Neuroglioblastoma Cells. [Related pubchem assays: 1827 (Project Summary), 1813 (Primary HTS)]; format: functional
# [6] = inhibitors of SNCA 5'UTR-driven reporter translation, confirmation, H4 neuroglioma cells, luminescence (AID 1988); format: functional, cell-based
# [7] = target: Luciferin 4-monooxygenase (Photinus pyralis, UniProt P08659); experiment: firefly luciferase enzyme inhibitors, dose response, biochemical, luminescence (AID 1891)
# [8] = Luminescence Cell-Based Dose Confirmation HTS to Identify Inhibitors of Platelet Dense Granule Release. [Related pubchem assays: 1663 (Primary HTS), 1678 (Summary of Project)]; format: functional
# [9] = inhibition of ADP-Glo detection reagents, dose response, artefact control for CDK5 inhibitor project, biochemical, luminescence, cherry-picked samples, set 2 (AID 504546); format: functional
# [10] = target: Cyclin-dependent kinase 5/CDK5 activator 1 (Homo sapiens, UniProt Q00535); experiment: CDK5/p35 kinase inhibitors, dose response, biochemical, cherry-picked samples, set 2 (AID 504545)
# cells = format: functional
# HEK293 = experiment: inhibitors of LMP1-driven NF-kB reporter, dose response, cell-based, HEK293, luciferase, cherry-pick (AID 588343); format: functional; conditions: Homo sapiens
# Caspase-3 = target: T3, Caspase-3 (Homo sapiens, UniProt P42574); experiment: procaspase-3 activators, dose response, biochemical, absorbance (AID 489014)
# T3 sequence (P42574 whole entry): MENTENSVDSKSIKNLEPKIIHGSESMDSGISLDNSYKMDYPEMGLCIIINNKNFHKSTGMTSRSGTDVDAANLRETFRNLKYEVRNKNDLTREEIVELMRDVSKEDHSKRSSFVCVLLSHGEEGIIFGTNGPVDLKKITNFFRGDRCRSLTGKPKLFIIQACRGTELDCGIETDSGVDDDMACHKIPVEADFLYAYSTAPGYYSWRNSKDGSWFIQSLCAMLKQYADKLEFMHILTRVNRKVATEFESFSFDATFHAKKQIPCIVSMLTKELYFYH
# Caspase-7 = Caspase-7 (Homo sapiens, UniProt P55210); experiment: procaspase-7 activators, dose response, counter-screen for procaspase-3 activator project, biochemical, absorbance (AID 489013)
# [11] = target: T4, Corticotropin-releasing factor receptor 2/Corticotropin-releasing factor-binding protein (Homo sapiens, UniProt P24387+Q13324); experiment: Dose Response confirmation of uHTS hits for small molecule antagonists of the CRF-binding protein and CRF-R2 receptor complex.; format: functional; conditions: read-out: IC50_Mean
# T4 sequence (Q13324 whole entry): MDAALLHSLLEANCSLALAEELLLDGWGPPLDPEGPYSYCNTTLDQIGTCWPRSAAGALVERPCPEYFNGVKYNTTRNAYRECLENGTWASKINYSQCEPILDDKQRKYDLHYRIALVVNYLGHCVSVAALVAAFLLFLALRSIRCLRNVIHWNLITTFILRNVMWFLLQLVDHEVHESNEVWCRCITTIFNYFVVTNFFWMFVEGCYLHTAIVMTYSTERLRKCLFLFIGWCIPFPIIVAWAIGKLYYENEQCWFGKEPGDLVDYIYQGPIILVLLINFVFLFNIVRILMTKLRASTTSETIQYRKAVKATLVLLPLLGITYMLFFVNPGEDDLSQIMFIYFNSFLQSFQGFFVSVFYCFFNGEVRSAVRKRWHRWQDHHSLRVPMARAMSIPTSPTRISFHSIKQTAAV
# T4 sequence (P24387 whole entry): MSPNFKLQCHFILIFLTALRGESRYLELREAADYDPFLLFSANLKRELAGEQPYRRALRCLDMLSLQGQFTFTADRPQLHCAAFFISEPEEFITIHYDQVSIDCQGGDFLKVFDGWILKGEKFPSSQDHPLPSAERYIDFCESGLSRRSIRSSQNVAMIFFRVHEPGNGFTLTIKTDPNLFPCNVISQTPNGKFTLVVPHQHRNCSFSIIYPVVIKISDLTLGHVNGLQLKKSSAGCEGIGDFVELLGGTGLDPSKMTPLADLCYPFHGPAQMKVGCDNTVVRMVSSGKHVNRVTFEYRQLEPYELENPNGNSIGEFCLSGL
# [12] = target: T4, Corticotropin-releasing factor receptor 2/Corticotropin-releasing factor-binding protein; experiment: activators of CRF receptor 2 with binding protein – uHTS hits, confirmation (AID 602473); format: functional; conditions: read-out: EC50_Mean
# Cytochrome P450 3A4 = Cytochrome P450 3A4 (Homo sapiens, UniProt P08684);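 note: CYP3A4 tested as one member of a cytochrome P450 panel screen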
# Chain of Cytochrome P450 3A4 (P08684 whole entry): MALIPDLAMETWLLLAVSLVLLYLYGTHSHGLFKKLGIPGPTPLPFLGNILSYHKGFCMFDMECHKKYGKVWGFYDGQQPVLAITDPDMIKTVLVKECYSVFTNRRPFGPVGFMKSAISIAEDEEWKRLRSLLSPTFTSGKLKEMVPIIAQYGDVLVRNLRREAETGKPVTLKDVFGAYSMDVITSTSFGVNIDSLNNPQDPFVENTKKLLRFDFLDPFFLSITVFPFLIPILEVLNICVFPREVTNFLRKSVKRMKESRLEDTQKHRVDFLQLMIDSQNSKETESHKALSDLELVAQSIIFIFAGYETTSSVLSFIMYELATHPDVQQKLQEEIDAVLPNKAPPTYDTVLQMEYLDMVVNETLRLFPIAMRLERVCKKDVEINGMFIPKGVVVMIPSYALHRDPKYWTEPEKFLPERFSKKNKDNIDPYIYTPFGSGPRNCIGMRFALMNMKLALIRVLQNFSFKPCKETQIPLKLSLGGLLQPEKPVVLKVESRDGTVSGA
# Protein Rev = Protein Rev (Human immunodeficiency virus type 1 group M subtype B (isolate HXB2)(HIV-1), UniProt P04618); experiment: inhibitors of Rev binding to RRE RNA, dose response, biochemical, fluorescence polarization, HIV-1 (AID 434976); set-up: species or system Human immunodeficiency virus 1
# [13] = target: Female germline-specific tumor suppressor gld-1 (Caenorhabditis elegans, UniProt Q17339); experiment: inhibitors of GLD-1 binding to TGE RNA, dose response, biochemical, fluorescence polarization, C. elegans (AID 2802);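 note: fluorescence polarization of labeled TGE RNA bound by purified gld-1 protein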
# Chain of Female germline-specific tumor suppressor gld-1 (Q17339 whole entry): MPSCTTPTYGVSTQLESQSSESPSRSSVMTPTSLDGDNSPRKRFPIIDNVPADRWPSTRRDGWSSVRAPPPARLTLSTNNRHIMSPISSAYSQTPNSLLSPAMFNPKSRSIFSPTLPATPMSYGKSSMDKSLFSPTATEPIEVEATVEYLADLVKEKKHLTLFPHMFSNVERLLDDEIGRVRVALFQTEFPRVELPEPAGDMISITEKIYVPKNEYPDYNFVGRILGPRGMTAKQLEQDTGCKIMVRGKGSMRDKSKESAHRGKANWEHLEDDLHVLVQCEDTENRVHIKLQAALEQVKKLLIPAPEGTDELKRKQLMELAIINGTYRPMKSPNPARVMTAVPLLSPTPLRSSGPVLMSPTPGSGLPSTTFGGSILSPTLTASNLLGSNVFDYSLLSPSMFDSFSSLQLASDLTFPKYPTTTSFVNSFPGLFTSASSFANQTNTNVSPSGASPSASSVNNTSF
# [14] = target: T5, Polyadenylate-binding protein 1 (Homo sapiens, UniProt P11940); experiment: PABP1 MLLE–PAM2 interaction inhibitors, dose response, miRNA deadenylation inhibitor project, biochemical, fluorescence polarization, Cy5-PAM2 peptide, secondary (AID 602260); format: functional; conditions: read-out: IC50_Mean
# T5 sequence (P11940 whole entry): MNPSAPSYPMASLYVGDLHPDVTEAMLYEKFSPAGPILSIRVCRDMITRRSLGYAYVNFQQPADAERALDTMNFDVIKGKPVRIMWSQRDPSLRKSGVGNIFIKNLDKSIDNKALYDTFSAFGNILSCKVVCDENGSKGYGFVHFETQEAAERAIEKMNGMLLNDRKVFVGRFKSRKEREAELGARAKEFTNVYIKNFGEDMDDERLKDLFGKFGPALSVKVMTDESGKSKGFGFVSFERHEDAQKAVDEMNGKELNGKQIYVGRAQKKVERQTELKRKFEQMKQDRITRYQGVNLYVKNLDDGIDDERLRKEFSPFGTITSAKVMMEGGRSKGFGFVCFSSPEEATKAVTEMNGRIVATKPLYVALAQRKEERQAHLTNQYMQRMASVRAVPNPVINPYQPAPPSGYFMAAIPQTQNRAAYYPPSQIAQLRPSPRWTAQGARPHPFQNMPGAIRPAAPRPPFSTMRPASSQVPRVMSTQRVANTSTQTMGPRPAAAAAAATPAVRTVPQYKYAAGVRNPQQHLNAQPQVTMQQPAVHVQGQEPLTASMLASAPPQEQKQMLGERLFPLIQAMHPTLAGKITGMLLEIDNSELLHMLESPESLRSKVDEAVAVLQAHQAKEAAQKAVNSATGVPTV
# [15] = target: T5, Polyadenylate-binding protein 1; experiment: PABP1 MLLE–PAM2 binding inhibitor potency, dose response, biochemical, fluorescence polarization, FITC-PAM2 peptide (AID 602259); format: functional; conditions: read-out: IC50_Mean
# [16] = target: Endoplasmic reticulum aminopeptidase 1 (Homo sapiens, UniProt Q9NZ08); experiment: ERAP1 aminopeptidase inhibitors, dose response, biochemical, cherry-pick, set 2, plate reader (AID 743314)
# [17] = target: Eukaryotic translation initiation factor 4H (Homo sapiens, UniProt Q15056); experiment: eIF4H inhibition in translation initiation, SAR follow-up (AID 435011); format: functional
# [18] = target: T5, Polyadenylate-binding protein 1; experiment: PABP inhibition in translation initiation, SAR follow-up (AID 435018); format: functional
# [19] = target: T6, Delta-type opioid receptor (Homo sapiens, UniProt P41143); experiment: HTS Image-Based Screen for Antagonists of the DOR Receptor. [Related pubchem assays (depositor defined):AID1777, AID1785, AID1786, AID2133]; format: functional
# T6 sequence (P41143 whole entry): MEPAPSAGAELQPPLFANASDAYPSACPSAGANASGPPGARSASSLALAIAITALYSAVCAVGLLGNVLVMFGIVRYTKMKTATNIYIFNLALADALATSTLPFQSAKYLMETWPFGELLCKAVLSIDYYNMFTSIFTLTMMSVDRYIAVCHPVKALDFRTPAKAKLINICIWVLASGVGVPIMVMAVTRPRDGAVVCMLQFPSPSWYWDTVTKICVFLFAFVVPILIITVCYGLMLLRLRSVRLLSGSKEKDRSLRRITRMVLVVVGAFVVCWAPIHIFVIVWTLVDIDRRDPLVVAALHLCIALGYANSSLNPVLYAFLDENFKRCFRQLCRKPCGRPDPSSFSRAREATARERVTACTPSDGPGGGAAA
# Mu-type opioid receptor = Mu-type opioid receptor (Homo sapiens, UniProt P35372); experiment: HTS Image-Based Screen for Agonists of the MOR Receptor. [Related pubchem assays (depositor defined):AID1777, AID1785, AID1786, AID2133]; format: functional;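 note: imaging of beta-arrestin GFP recruitment into spots after receptor activation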
# [20] = target: T6, Delta-type opioid receptor; experiment: HTS Image-Based Screen for Agonists of the DOR Receptor. [Related pubchem assays (depositor defined):AID1777, AID1786, AID2133]; format: functional
# [21] = target: T7, Kappa-type opioid receptor (Homo sapiens, UniProt P41145); format: functional
# T7 sequence (P41145 whole entry): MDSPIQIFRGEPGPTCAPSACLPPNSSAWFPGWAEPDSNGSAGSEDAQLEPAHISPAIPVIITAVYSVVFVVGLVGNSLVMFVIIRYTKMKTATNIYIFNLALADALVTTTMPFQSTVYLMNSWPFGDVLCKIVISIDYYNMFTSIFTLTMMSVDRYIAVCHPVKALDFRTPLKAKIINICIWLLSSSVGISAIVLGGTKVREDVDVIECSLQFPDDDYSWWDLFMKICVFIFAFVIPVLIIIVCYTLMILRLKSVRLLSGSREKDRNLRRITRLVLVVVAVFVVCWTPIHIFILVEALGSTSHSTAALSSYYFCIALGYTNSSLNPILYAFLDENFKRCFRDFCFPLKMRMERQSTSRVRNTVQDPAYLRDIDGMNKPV
# [22] = target: T7, Kappa-type opioid receptor; format: functional; remark: listed apart in the source
# Melanocortin receptor 4 = Melanocortin receptor 4 (Homo sapiens, UniProt P32245); format: functional, cell-based;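 note: Cell-based assay with luminescence read-out, confirmatory dose-response testing for agonist activity of biased ligands at MC4R; human U2OS cells with tagged receptor and beta-arrestin; potency of agonists that increase receptor coupling to beta-arrestin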
# [23] = target: Voltage-dependent T-type calcium channel subunit alpha-1H (Homo sapiens, UniProt O95180); experiment: Cav3.2 T-type channel inhibitors, cell-based, synthetic library set 1, calcium flux (AID 493022); format: functional
# Chain of Voltage-dependent T-type calcium channel subunit alpha-1H (O95180 whole entry): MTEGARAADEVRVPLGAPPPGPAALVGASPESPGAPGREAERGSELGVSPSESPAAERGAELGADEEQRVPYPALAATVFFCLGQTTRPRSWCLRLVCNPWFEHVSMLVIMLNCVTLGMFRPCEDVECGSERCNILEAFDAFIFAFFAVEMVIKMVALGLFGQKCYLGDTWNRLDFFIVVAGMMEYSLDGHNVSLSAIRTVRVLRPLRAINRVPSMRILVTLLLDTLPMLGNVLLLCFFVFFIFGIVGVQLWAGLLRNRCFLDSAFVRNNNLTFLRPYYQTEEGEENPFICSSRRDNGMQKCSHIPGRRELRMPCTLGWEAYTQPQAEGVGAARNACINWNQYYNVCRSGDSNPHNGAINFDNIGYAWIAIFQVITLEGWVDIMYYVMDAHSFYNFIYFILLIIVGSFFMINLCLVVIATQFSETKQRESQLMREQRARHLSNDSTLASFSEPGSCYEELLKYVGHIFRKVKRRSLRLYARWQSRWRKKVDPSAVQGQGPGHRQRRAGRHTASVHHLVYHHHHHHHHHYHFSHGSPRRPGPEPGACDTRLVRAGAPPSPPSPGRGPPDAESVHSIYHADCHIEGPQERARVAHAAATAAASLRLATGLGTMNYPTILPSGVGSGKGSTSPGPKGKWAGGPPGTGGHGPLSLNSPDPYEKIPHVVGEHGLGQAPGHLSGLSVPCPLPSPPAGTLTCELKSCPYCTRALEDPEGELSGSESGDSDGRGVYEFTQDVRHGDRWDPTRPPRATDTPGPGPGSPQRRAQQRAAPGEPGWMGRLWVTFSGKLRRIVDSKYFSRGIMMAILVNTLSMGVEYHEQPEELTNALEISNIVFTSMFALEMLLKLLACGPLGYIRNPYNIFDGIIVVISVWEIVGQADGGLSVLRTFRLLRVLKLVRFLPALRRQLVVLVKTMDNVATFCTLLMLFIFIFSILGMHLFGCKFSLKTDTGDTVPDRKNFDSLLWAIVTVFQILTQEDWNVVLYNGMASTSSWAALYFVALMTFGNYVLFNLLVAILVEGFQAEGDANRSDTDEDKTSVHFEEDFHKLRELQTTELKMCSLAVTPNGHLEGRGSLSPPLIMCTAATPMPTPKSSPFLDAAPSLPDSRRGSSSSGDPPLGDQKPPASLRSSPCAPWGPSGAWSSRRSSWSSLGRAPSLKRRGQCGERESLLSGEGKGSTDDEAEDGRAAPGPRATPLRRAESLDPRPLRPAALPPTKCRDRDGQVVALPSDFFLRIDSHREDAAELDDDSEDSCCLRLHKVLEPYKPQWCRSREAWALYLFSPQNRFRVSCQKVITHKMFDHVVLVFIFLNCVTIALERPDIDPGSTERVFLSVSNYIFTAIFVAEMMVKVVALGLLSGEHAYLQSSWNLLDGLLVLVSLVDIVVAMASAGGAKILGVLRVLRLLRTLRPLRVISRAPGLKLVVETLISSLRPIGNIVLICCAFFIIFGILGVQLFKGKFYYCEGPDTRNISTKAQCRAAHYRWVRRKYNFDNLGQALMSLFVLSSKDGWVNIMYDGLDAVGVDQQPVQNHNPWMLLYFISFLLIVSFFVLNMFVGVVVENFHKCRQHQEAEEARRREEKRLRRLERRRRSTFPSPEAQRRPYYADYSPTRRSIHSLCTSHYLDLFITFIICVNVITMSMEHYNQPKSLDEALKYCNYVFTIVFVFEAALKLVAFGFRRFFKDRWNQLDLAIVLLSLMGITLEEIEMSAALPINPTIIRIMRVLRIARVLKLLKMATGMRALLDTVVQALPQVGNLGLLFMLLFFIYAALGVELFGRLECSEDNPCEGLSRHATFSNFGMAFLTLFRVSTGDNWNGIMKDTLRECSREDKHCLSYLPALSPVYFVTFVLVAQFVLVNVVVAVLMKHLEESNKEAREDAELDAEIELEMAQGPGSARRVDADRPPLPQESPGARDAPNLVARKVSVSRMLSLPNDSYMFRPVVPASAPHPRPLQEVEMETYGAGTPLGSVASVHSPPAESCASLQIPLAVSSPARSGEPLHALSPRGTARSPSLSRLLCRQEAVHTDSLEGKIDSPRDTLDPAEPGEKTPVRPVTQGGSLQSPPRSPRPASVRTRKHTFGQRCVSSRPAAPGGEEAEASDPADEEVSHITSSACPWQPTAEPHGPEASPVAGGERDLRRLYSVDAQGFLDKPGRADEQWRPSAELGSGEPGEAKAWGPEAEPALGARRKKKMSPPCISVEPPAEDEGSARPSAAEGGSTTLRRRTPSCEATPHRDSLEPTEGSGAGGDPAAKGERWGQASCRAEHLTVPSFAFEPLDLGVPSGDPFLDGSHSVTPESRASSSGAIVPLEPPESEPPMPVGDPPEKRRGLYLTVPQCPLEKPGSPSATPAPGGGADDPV
# [24] = target: C-C chemokine receptor type 6 (Homo sapiens, UniProt P51684); experiment: CCR6 receptor antagonists, dose response, cell-based, luminescent beta-arrestin readout (AID 504728); format: functional
# Beta-galactosidase = Beta-galactosidase (Escherichia coli, UniProt Q8VNN2); experiment: beta-galactosidase enzyme inhibitors and activators, dose response, artefact control for CCR6 antagonist project, biochemical, E. coli enzyme, set 3 (AID 504712); format: functional
smiles,measurement,setting,value
Cc1cccc(N2C(=O)NC(=O)/C(=C\c3cccn3-c3ccc(Cl)cc3)C2=O)c1,EC50,[1],9.06 µM (active)
same,AC50,[2],8.91 µM (active)
same,CC50,Vero,23.4 µM (active)
Cc1cccc(Cc2c(C)nc3c(C(=O)NCc4ccco4)cnn3c2C)c1,EC50,[3],3.76 µM (active)
CCOc1ccc(OCC(=O)Nc2nccs2)cc1,EC50,[4],8.12 µM (active)
same,EC50,[5],9.78 µM (active)
same,EC50,[6],6.85 µM (active)
same,EC50,[7],5.61 µM (active)
same,EC50,[8],2.37 µM (active)
same,AC50,[9],31.3 µM (active)
same,AC50,[10],21.2 µM (active)
same,IC50,cells,20.2 µM (active)
same,AC50,HEK293,2.74 µM (active)
COC(=O)C1=C(NC(=O)c2cccc(OC)c2)CCS1,EC50,Caspase-3,> 85.3 µM (inactive)
same,EC50,Caspase-7,> 85.3 µM (inactive)
same,IC50,[11],> 47.1 µM (inactive)
same,EC50,[12],> 53 µM (inactive)
same,AC50,Cytochrome P450 3A4,25.1 µM (inconclusive)
Cc1c(O)ccc2cc(S(=O)(=O)c3ccccc3)c(=O)oc12,IC50,Protein Rev,14.2 µM (not active)
same,IC50,[13],4.72 µM (active)
same,IC50,[14],> 66 µM (inactive)
same,IC50,[15],46.7 µM (inactive)
same,AC50,[16],3.32 µM (active)
COc1ccc(OC)c([N+]2=C3SCCCN3C(O)(c3cccs3)C2)c1 (centres undefined),IC50,[17],> 100 µM (inactive)
same,IC50,[18],> 100 µM (inactive)
Cc1ccccc1NC(=O)c1ccc(COc2ccc3c(C)cc(=O)oc3c2)cc1,IC50,[19],> 32 µM (inactive)
same,EC50,Mu-type opioid receptor,> 32 µM (inactive)
same,EC50,[20],> 32 µM (inactive)
same,EC50,[21],> 35 µM
same,EC50,[22],18.1 µM
same,EC50,Melanocortin receptor 4,> 89.3 µM (inactive)
O=C(COc1ccc(F)cc1)Nc1nnc(-c2ccc(F)c(F)c2)o1,EC50,[23],3.7 µM (active)
CN(C)CC1CCC/C(=C\c2ccc(OC(=O)c3ccc(Cl)cc3)cc2)C1=O (centres undefined),IC50,[24],47.6 µM (inactive)
same,IC50,Beta-galactosidase,> 66.6 µM (inactive)
